Reference: patent publication US20250002475A1 (EPICS THERAPEUTICS, priority 2023, published 2025)

What was measured:
[1] = target: T1, recombinant METTL3/METTL14 complex (Homo sapiens, UniProt Q86U44); experiment: METTL3/14 Scintillation Proximity Assay (SPA), RNA methyltransferase activity; assay type: biochemical; settings: 5.31 nM METTL3/14 complex, 250 nM RNA substrate, 1 μM 3H-SAM, 90 min; for compounds marked * best of the two separated forms
T1 construct: purchased Active Motif 311970; host or cells: Sf9 cells
T1 sequence (Q86U44 whole entry): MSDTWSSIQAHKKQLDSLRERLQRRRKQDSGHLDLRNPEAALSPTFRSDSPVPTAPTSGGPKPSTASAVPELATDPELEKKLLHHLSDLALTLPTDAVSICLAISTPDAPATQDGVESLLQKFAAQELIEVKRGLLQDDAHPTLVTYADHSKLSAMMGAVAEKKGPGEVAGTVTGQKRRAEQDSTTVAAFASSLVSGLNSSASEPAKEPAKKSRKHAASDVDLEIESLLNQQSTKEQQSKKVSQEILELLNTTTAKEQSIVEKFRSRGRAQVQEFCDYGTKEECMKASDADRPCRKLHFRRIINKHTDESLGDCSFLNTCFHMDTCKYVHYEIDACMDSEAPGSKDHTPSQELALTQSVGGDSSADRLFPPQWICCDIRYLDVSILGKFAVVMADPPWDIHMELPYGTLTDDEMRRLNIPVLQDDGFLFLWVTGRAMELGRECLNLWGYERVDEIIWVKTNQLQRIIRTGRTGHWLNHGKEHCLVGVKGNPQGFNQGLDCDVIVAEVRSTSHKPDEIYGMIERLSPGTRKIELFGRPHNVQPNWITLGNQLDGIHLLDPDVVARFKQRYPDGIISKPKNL
T1 sequence (Q9HCE5 whole entry partner): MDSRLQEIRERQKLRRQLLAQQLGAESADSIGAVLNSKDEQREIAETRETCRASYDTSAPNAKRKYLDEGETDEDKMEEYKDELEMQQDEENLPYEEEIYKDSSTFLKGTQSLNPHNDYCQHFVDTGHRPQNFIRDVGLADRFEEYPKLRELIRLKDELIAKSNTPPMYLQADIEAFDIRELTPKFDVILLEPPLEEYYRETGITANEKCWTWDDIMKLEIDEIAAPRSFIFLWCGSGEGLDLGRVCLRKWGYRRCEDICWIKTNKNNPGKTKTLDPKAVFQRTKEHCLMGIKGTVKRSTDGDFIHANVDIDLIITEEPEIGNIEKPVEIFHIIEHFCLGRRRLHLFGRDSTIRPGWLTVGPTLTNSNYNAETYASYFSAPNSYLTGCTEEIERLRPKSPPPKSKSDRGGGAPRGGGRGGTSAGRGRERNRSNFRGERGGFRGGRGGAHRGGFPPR

Caov-3 cells = experiment: Caov-3 cellular viability assay (ATP-Lite, 72 h); assay type: cell-based; settings: Homo sapiens, ATP-Lite luminescence, % viability relative to DMSO
Summary of the method: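 10000 cells/well treated 72 h at 37 °C, 5% CO2, in RPMI-1640 with 10% FBS and 0.1% DMSO final. Viability by ATP-Lite One Step luminescence. Expressed as % of DMSO control, with IC50 from each compound's concentration-response curve.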

Kasumi-1 cells = experiment: Kasumi-1 cellular viability assay (ATP-Lite, 72 h); assay type: cell-based; settings: Homo sapiens, ATP-Lite luminescence, % viability relative to DMSO
Summary of the method: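 Kasumi-1 AML cells, 15000/well in RPMI-1640 with 10% FBS, were exposed to compound titrations (0.1% final DMSO) for 72 h at 37 °C, 5% CO2. ATP-Lite One Step luminescence gave % viability versus DMSO control, and IC50 came from the concentration-response.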

Row | IC50 [1] [nM] | SMILES | IC50 (Caov-3 cells) [nM] | IC50 (Kasumi-1 cells) [nM]
1 | ≤ 50 | CC(c1nnc(-c2cncc(N(C)C)c2)s1)n1ccc(N2CCC[C@@H](NCC3CCC3)C2)cc1=O (stereo partly drawn) [Compound 171, 4-((R)-3-((cyclobutylmethyl)amino)piperidin-1-yl)-1-(1-(5-(5-(dimethylamino)pyridin-3-yl)-1,3,4-thiadiazol-2-yl)ethyl)pyridin-2(1H)-one] | ≤ 500 | ≤ 500
2 | ≤ 50 | COc1cc(-c2cn(Cc3ccc(N4CCC[C@@H](NCC5CCC5)C4)nc3)nn2)c2cn[nH]c2c1 [Compound 040, (R)-N-(cyclobutylmethyl)-1-(5-((4-(6-methoxy-1H-indazol-4-yl)-1H-1,2,3-triazol-1-yl)methyl)pyridin-2-yl)piperidin-3-amine] | ≤ 500 | ≤ 500
3 | ≤ 50 | COc1cncc(-c2cn(Cc3ccc(N4CCC[C@@H](NCC5CCC5)C4)nc3)nn2)c1 [Compound 086, (R)-N-(cyclobutylmethyl)-1-(5-((4-(5-methoxypyridin-3-yl)-1H-1,2,3-triazol-1-yl)methyl)pyridin-2-yl)piperidin-3-amine] | 500 to 5000 | 500 to 5000
4 | ≤ 50 | CN(C)c1cncc(-c2cn(Cc3ccc(N4CCC[C@@H](NCC5CC5)C4)nn3)nn2)c1 [Compound 183, (R)-5-(1-((6-(3-((cyclopropylmethyl)amino)piperidin-1-yl)pyridazin-3-yl)methyl)-1H-1,2,3-triazol-4-yl)-N,N-dimethylpyridin-3-amine] | ≤ 500 | 500 to 5000
5 | ≤ 50 | CN(C)c1cncc(-c2cn(Cc3ccc(N4CCC[C@@H](NCC5CCC5)C4)cn3)nn2)c1 [Compound 139, (R)-5-(1-((5-(3-((cyclobutylmethyl)amino)piperidin-1-yl)pyridin-2-yl)methyl)-1H-1,2,3-triazol-4-yl)-N,N-dimethylpyridin-3-amine] | ≤ 500 | ≤ 500
6 | ≤ 50 | CC(c1ccc(N2CCC[C@@H](NCC3CC3)C2)cn1)n1cnc(-c2cncc(N3CCCC3)n2)c1 (single isomer, unassigned) [Compound 355] | ≤ 500 | ≤ 500
7 | ≤ 50 | CCC(c1ccc(N2CCC[C@@H](NCC3CCC3)C2)nn1)n1cc(-c2cncc(OC)c2)nn1 (single isomer, unassigned) [Compound 085] | 500 to 5000 | > 5000
8 | ≤ 50 | O=C(Nc1cncc(N2CCCC2)n1)C1(c2ccc(N3CCC[C@@H](NCC4CCC4)C3)nc2)COC1 [Compound 319, (R)-3-(6-(3-((cyclobutylmethyl)amino)piperidin-1-yl)pyridin-3-yl)-N-(6-(pyrrolidin-1-yl)pyrazin-2-yl)oxetane-3-carboxamide] | ≤ 500 | ≤ 500
9 | ≤ 50 | c1cc(N2CCC[C@@H](NCC3CCC3)C2)ccc1Cn1cc(-c2cncc(N3CC4CC4C3)n2)nn1 (stereo partly drawn) [Compound 288, (3R)-1-(4-((4-(6-(3-azabicyclo[3.1.0]hexan-3-yl)pyrazin-2-yl)-1H-1,2,3-triazol-1-yl)methyl)phenyl)-N-(cyclobutylmethyl)piperidin-3-amine] | ≤ 500 | ≤ 500
10 | ≤ 50 | CC(N[C@@H]1CCCN(c2ccc(C3(C(=O)Nc4cc(=O)n5ccccc5n4)COC3)nc2)C1)C1CCC1 (mixture of isomers) [Compound 336, 3-(5-((3R)-3-((1-cyclobutylethyl)amino)piperidin-1-yl)pyridin-2-yl)-N-(4-oxo-4H-pyrido[1,2-a]pyrimidin-2-yl)oxetane-3-carboxamide] | ≤ 500 | ≤ 500
11 | ≤ 50 | CC(n1cc(-c2cncc(N3CC(F)(F)C3)c2)nn1)n1ccc(N2CCC[C@@H](NCC3CC3)C2)cc1=O (stereo partly drawn) [Compound 197] | 500 to 5000 | 500 to 5000
12 | ≤ 50 | CC(C(=O)Nc1cncc(N2CCCC2)n1)c1ccc(N2CCC[C@@H](NCC3CCC3)C2)nn1 (stereo partly drawn) [Compound 279, 2-(6-((R)-3-((cyclobutylmethyl)amino)piperidin-1-yl)pyridazin-3-yl)-N-(6-(pyrrolidin-1-yl)pyrazin-2-yl)propanamide] | 500 to 5000 | 500 to 5000
13 | ≤ 50 | CC(n1cc(-c2cncc(N3CC4(COC4)C3)c2)nn1)n1ccc(N2CCC[C@@H](NCC3CCC3)C2)cc1=O (single isomer, unassigned) [Compound 191] | ≤ 500 | 500 to 5000
14 | ≤ 50 | COc1cncc(-c2cn(C(C)n3ccc(N4CCC[C@@H](NCC5CC5)C4)cc3=O)nn2)c1 (single isomer, unassigned) [Compound 232] | ≤ 500 | ≤ 500
15 | ≤ 50 | O=C(Nc1cc(=O)n2ccccc2n1)C1(c2ncc(N3CCC[C@@H](NCC4CCC4)C3)cc2F)COC1 [Compound 298, (R)-3-(5-(3-((cyclobutylmethyl)amino)piperidin-1-yl)-3-fluoropyridin-2-yl)-N-(4-oxo-4H-pyrido[1,2-a]pyrimidin-2-yl)oxetane-3-carboxamide] | 500 to 5000 | 500 to 5000
16 | ≤ 50 | CC(n1cc(-c2cncc(N3CCCC3)c2)nn1)n1ccc(N2CCC[C@@H](NCC3CC3)C2)cc1=O (single isomer, unassigned) [Compound 176] | ≤ 500 | ≤ 500
17 | ≤ 50 | O=C(Nc1cc(=O)n2ccccc2n1)C1(c2ccc(N3CCC[C@@H](NCC4CCC4)C3)cn2)COC1 [Compound 239, (R)-3-(5-(3-((cyclobutylmethyl)amino)piperidin-1-yl)pyridin-2-yl)-N-(4-oxo-4H-pyrido[1,2-a]pyrimidin-2-yl)oxetane-3-carboxamide] | ≤ 500 | ≤ 500
18 | ≤ 50 | O=C(Nc1cncc(N2CCCC2)n1)C1(c2ccc(N3CCC[C@@H](NCC45CC(F)(C4)C5)C3)cn2)COC1 [Compound 269, (R)-3-(5-(3-(((3-fluorobicyclo[1.1.1]pentan-1-yl)methyl)amino)piperidin-1-yl)pyridin-2-yl)-N-(6-(pyrrolidin-1-yl)pyrazin-2-yl)oxetane-3-carboxamide] | ≤ 500 | ≤ 500
19 | ≤ 50 | O=C(Nc1cc(=O)n2ccccc2n1)C1(c2ccc(N3CCC[C@@H](NC4CCC4)C3)cn2)COC1 [Compound 327, (R)-3-(5-(3-(cyclobutylamino)piperidin-1-yl)pyridin-2-yl)-N-(4-oxo-4H-pyrido[1,2-a]pyrimidin-2-yl)oxetane-3-carboxamide] | 500 to 5000 | 500 to 5000
20 | ≤ 50 | CC(C)Nc1cncc(-c2cn(C(C)n3ccc(N4CCC[C@@H](NCC5CCC5)C4)cc3=O)nn2)c1 (single isomer, unassigned) [Compound 158] | ≤ 500 | ≤ 500
21 | ≤ 50 | CC(n1cc(-c2cc(N3CCCC3)cnn2)nn1)n1ccc(N2CCC[C@@H](NCC3CC3)C2)cc1=O (single isomer, unassigned) [Compound 206] | ≤ 500 | 500 to 5000
22 | ≤ 50 | COc1cc(-c2cn(Cc3ccc(N4CCC[C@@H](NCC5CCC5)C4)cc3)nn2)c2cn[nH]c2c1 [Compound 123, (R)-N-(cyclobutylmethyl)-1-(4-((4-(6-methoxy-1H-indazol-4-yl)-1-1,2,3-triazol-1-yl)methyl)phenyl)piperidin-3-amine] | ≤ 500 | ≤ 500
23 | ≤ 50 | CC(n1cc(-c2cncc(N3CCN(C)C3=O)c2)nn1)n1ccc(N2CCC[C@@H](NCC3CCC3)C2)cc1=O (single isomer, unassigned) [Compound 153] | > 5000 | > 5000
24 | ≤ 50 | FC12CC(CN[C@@H]3CCCN(c4ccc(C5(n6cc(-c7cncc(N8CCCC8)n7)nn6)COC5)nc4)C3)(C1)C2 [Compound 308, (R)-N-((3-fluorobicyclo[1.1.1]pentan-1-yl)methyl)-1-(6-(3-(4-(6-(pyrrolidin-1-yl)pyrazin-2-yl)-1H-1,2,3-triazol-1-yl)oxetan-3-yl)pyridin-3-yl)piperdin-3-amine] | ≤ 500 | ≤ 500
25 | ≤ 50 | c1cc(C2(n3cc(-c4cncc(C5CC5)n4)nn3)COC2)ncc1N1CCC[C@@H](NCC2CCC2)C1 [Compound 283, (R)-N-(cyclobutylmethyl)-1-(6-(3-(4-(6-cyclopropylpyrazin-2-yl)-1H-1,2,3-triazol-1-yl)oxetan-3-yl)pyridin-3-yl)piperidin-3-amine] | ≤ 500 | ≤ 500
26 | ≤ 50 | O=C(Nc1cc(=O)n2ccccc2n1)C1(c2ccc(N3CCC[C@@H](NCC4(F)CC4)C3)cn2)COC1 [Compound 330, (R)-3-(5-(3-(((1-fluorocyclopropyl)methyl)amino)piperidin-1-yl)pyridin-2-yl)-N-(4-oxo-4H-pyrido[1,2-a]pyrimidin-2-yl)oxetane-3-carboxamide] | 500 to 5000 | 500 to 5000
27 | ≤ 50 | COc1cnnc(-c2cn(C(C)n3ccc(N4CCC[C@@H](NCC5CCC5)C4)cc3=O)nn2)c1 (mixture of isomers) [Compound 093, 4-((R)-3-((cyclobutylmethyl)amino)piperidin-1-yl)-1-(1-(4-(5-methoxypyridazin-3-yl)-1H-1,2,3-triazol-1-yl)ethyl)pyridin-2(1H)-one] | 500 to 5000 | 500 to 5000
